The results in this text go back to patent US4875922A, “Pyrimidine derivatives” (Imperial Chemical Industries PLC, priority 1986, dated 1989).

For experiment [1], the system named is Rice. The experiment can be described thus: Whole plant screen for plant growth regulator activity, rice (RC). Format: in vivo, Rice (Ishikari). The following applies: 4000 ppm (4 kg/ha), visual score after 2-6 weeks. How it is done:
(§1) Compounds 1 to 3 in Table 1 were tested for plant growth regulator activity against five species for various growth effects relevant to plant growth regulation.
(§2) The plant species used in this screen are presented in Table II with the leaf stage at which they were sprayed. Each chemical was applied at 4000 ppm (4 kg/ha in a 1000 l/ha field volume) using a tracksprayer and a SS8004E (Teejet) nozzle.
(§3) After spray the plants were grown in a glasshouse with 25° C. day/22° C. night temperatures and supplementary lighting was supplied when necessary (from mercury vapour lamps), to provide a 16 hour photoperiod. The exception to this were the temperate cereals, wheat and barley which were grown in 16° C. day/13° C. night temperatures.
(§4) After 2-6 weeks in the glasshouse, depending on the time of year, the plants were visually assessed for morphological characteristics. Formulation blanks were used as controls to assess the plants.
(§5) Additional compounds in Table I were tested for plant growth regulator activity using the method of Example 60 except that Tomato was included in the test as an additional species. Tomato, Ailsa Craig, was grown in a single 3 inch pot in peat and treated at the 2 to 21/2 leaves growth stage. The results were presented in Table IV in which Tomato is indicated by the code TO and the Key is otherwise as for Table III.

The test system of experiment [2] is Barley. The experiment can be described thus: Whole plant screen for plant growth regulator activity, barley (BR). Format: in vivo, Barley (Atem). The following applies: BR, 4000 ppm (4 kg/ha), visual score after 2-6 weeks; for T = Tillering or side shooting: * = decrease in tillering. How it is done:
as §1, §2, §3, §4, §5

The subject of experiment [3] is Apples. The experiment can be described thus: Intermediate Retardant Test, apples, foliar spray compared with root drench. Format: in vivo, Apples (Red Delicious). The following applies: 672 h, read-out: Percentage Reduction in Height of Apples (Compared to formulation blank); for percent reduction in plant height at 2000 µg/mL: soil, 2000 pmm (Root), root drench. The text has this: (§6) Three species are involved in this test RICE, SPRING-BARLEY and APPLES. The variety and growth stages at spray are outlined in Table V. Compounds were applied at 500 ppm and 2000 ppm respectively (0.5 kg and 2 kg/ha^-1 at a field volume of 1000 l/ha^-1) as an overall spray except in the case of certain tests on APPLES. This gives a foliar and root component in the test, i.e., this test will detect the activity of both root and foliar acting compounds. The intermediate retardant test on APPLES of which the results are given in Table IX was different, in that a foliar (only) spray at 2000 ppm was compared with a root drench, also at 2000 ppm. The rice was grown in 4" `paddy` pots, i.e., the roots and bottom of the stems are immersed in water under conditions corresponding to those in paddy fields. Spring barley and apples were grown in 4" pots. The plants were assessed for height to top-most ligule at approximately 28 days after treatment for spring barley and rice and for height to apex at approximately 28 days after the treatment for apples. In each case the result for the 500 ppm and 2000 ppm test for each compound is compared to the height of the formulation blank in that test, presented as a percentage reduction in height compared to the formulation blank.
(§7) The prior art compound was compared with compounds of the present invention in side-by-side comparisons using the Intermediate Retardant Test described in Example 62, and the results are given in Tables X to XII where `A` is the prior art compound, 2-methyl-1-isopropyl-1-(pyrimidin-5-yl)-propan-1-ol).

For experiment [4], the system named is Spring Barley. The experiment can be described thus: Intermediate Retardant Test, spring barley. The experiment is classed as in vivo, Spring Barley (Atem/kym). The following applies: Hordeum vulgare, 672 h, read-out: Percentage Reduction in Height of Spring Barley (Compared to formulation blank).
Text: as §6, §7

Experiment [5] has as its system Rice. The experiment can be described thus: Intermediate Retardant Test, rice. Format: in vivo, Rice (Ishikari). The following applies: Oryza sativa, 672 h, read-out: Percentage Reduction in Height of Rice (Compared to formulation blank).
Text: as §6, §7

The test system of experiment [6] is Tomato. The experiment can be described thus: Whole plant screen for plant growth regulator activity, tomato (TO). The experiment is classed as in vivo, Tomato (Ailsa Craig). The following applies: 4000 ppm (4 kg/ha), visual score after 2-6 weeks. How it is done: as §2, §3, §4, §5
An astrisk (*) after a score under "T" (tillering) indicated a decrease in tillering.

In experiment [7] the test system is Wheat. The experiment can be described thus: Whole plant screen for plant growth regulator activity, wheat (WW). The experiment is classed as in vivo, Wheat (Timmo). The following applies: WW, 4000 ppm (4 kg/ha), visual score after 2-6 weeks; for T = Tillering or side shooting: * = decrease in tillering. The protocol: as §1, §2, §3, §4, §5
Experiment [8] concerns Apple. The experiment can be described thus: Whole plant screen for plant growth regulator activity, apple (AP). The following applies: 4000 ppm (4 kg/ha), visual score after 2-6 weeks. Format: in vivo, Apple (Red Delicious). The protocol: as §1, §2, §3, §4, §5
The mark [9] stands for this setting: 2000 ppm (Foliar), approximately 28 days, Table IX.
The mark [10] stands for this setting: approximately 28 days, Table IX.
Where [11] appears, read: overall spray, approximately 28 days, Table VII.
[12] abbreviates: overall spray, approximately 28 days, Table VI.
[13] abbreviates: 2000 ppm (Foliar), side-by-side comparison with prior art compound, Table XII.
Setting [14] is: 2000 ppm (Root), side-by-side comparison with prior art compound, Table XII.
The mark [15] stands for this setting: side-by-side comparison with prior art compound, Table XI.
Setting [16] is: side-by-side comparison with prior art compound, Table X.

Each structure is given as a SMILES string. Where two headings read alike, the source gives them in different places.

Take `CCC(C)C#CC(O)(c1cncnc1)C(C)C` (stereo not drawn) [Compound 5, 2-Methyl-1-(3-methylpent-1-yne)-1-(pyrimidin-5-yl)-propan-1-ol]: in experiment [1], the “I = Interligular or internodal length reduction” value is 2 (31-60%) and the “R = Retardation” value is 2 (31-60%). For the same compound, the “T = Tillering or side shooting” value in experiment [1] (* = decrease in tillering) was 1 (10-30%). Besides, in experiment [2], the “G = Greening effect” value is listed as 1 (10-30%), the “I = Interligular or internodal length reduction” value is on record as 3 (61-100%), the “R = Retardation” value is 3 (61-100%) and the “T = Tillering or side shooting” value is on record as 3 (61-100%). Moreover, the percent reduction in plant height at 2000 ppm in experiment [3] (setting [9]) was 25.6%. Besides, the percent reduction in plant height at 2000 µg/mL in experiment [3] (setting [10]) came out at 76.1%. Besides, in experiment [4] (setting [11]), the percent reduction in plant height at 500 ppm amounted to 38% and the percent reduction in plant height at 2000 ppm turned out to be 72%. Also, in experiment [5] (setting [12]), the Percent reduction in rice height vs formulation blank at 500 ppm was found to be 39% and the Percent reduction in rice height vs formulation blank at 2000 ppm turned out to be 68%. In addition, in experiment [6], the “G = Greening effect” value was 2 (31-60%), the “I = Interligular or internodal length reduction” value is given as 2 (31-60%) and the “R = Retardation” value was 2 (31-60%). Also, in experiment [7], the “G = Greening effect” value is listed as 2 (31-60%), the “I = Interligular or internodal length reduction” value was 3 (61-100%), the “R = Retardation” value is on record as 3 (61-100%) and the “T = Tillering or side shooting” value is recorded as 1 (10-30%).

Consider `CCCCCC(O)(c1cncnc1)C(C)(C)C` (stereo not drawn) [Compound 15, 2,2-Dimethyl-1-(pentyl)-1-(pyrimidin-5-yl)-propan-1-ol], for which, in experiment [2], the “I = Interligular or internodal length reduction” value is on record as 2 (31-60%) and the “R = Retardation” value is listed as 2 (31-60%). Moreover, in experiment [3] (setting [9]), the percent reduction in plant height at 2000 ppm was 44.2%. Moreover, in experiment [3] (setting [10]), the percent reduction in plant height at 2000 µg/mL is 71.1%. In experiment [4] (setting [11]), the percent reduction in plant height at 500 ppm is 14% and the percent reduction in plant height at 2000 ppm amounted to 33%. Also, in experiment [5] (setting [12]), the Percent reduction in rice height vs formulation blank at 500 ppm came to 13% and the Percent reduction in rice height vs formulation blank at 2000 ppm is 39%. Besides, in experiment [6], the “G = Greening effect” value was 2 (31-60%), the “I = Interligular or internodal length reduction” value is given as 2 (31-60%) and the “R = Retardation” value is on record as 2 (31-60%). In addition, in experiment [7], the “G = Greening effect” value is on record as 1 (10-30%), the “I = Interligular or internodal length reduction” value was 3 (61-100%), the “R = Retardation” value is recorded as 2 (31-60%) and the “T = Tillering or side shooting” value is 1 (10-30%).

With `CC(C)CC#CC(O)(c1cncnc1)C(C)C` (stereo not drawn) [Compound 4, 2-methyl-1-(4-methylpent-1-yne)-1-(pyrimidin-5-yl)-propan-1-ol], the percent reduction in plant height at 2000 ppm in experiment [3] (setting [13]) is 46.8%. Moreover, the percent reduction in plant height at 2000 ppm in experiment [3] (setting [14]) stood at 64.6%. In addition, in experiment [4] (setting [15]), the percent reduction in plant height at 500 ppm came out at 53% and the percent reduction in plant height at 2000 ppm turned out to be 64%. Further, in experiment [5] (setting [16]), the Percent reduction in rice height vs formulation blank at 500 ppm was determined as 45% and the Percent reduction in rice height vs formulation blank at 2000 ppm amounted to 66%.

As to `CCC(C)CC#CC(O)(c1cncnc1)C(C)C` (stereo not drawn) [Compound 11, 2-Methyl-1-(4-methylhex-1-yne)-1-(pyrimidin-5-yl)propan-1-ol], in experiment [3] (setting [9]), the percent reduction in plant height at 2000 ppm worked out at 6%. Besides, in experiment [3] (setting [10]), the percent reduction in plant height at 2000 µg/mL worked out at 55%. Further, in experiment [4] (setting [11]), the percent reduction in plant height at 500 ppm turned out to be 5% and the percent reduction in plant height at 2000 ppm came out at 47%. Besides, in experiment [5] (setting [12]), the Percent reduction in rice height vs formulation blank at 500 ppm was 4% and the Percent reduction in rice height vs formulation blank at 2000 ppm stood at 14%.

As to `CC(C)C(O)(C#CC(C)(C)C)c1cncnc1` (stereo not drawn) [Compound 10, 2-Methyl-1-(3,3-dimethylbut-1-yne)-1-(pyrmidin-5-yl)propan-1-ol], in experiment [1], the “G = Greening effect” value is 1 (10-30%), the “I = Interligular or internodal length reduction” value is reported as 2 (31-60%) and the “R = Retardation” value was 2 (31-60%). In addition, in experiment [2], the “G = Greening effect” value is on record as 2 (31-60%), the “I = Interligular or internodal length reduction” value is 3 (61-100%), the “R = Retardation” value is 2 (31-60%) and the “T = Tillering or side shooting” value was 2 (31-60%). For the same compound, in experiment [3] (setting [9]), the percent reduction in plant height at 2000 ppm was determined as 4%. In addition, the percent reduction in plant height at 2000 µg/mL in experiment [3] (setting [10]) came to 69%. Also, in experiment [4] (setting [11]), the percent reduction in plant height at 500 ppm is 29% and the percent reduction in plant height at 2000 ppm came to 62%. Further, in experiment [8], the “I = Interligular or internodal length reduction” value is 3 (61-100%) and the “R = Retardation” value is 2 (31-60%). In addition, in experiment [5] (setting [12]), the Percent reduction in rice height vs formulation blank at 500 ppm worked out at 9% and the Percent reduction in rice height vs formulation blank at 2000 ppm worked out at 20%. In experiment [7], the “G = Greening effect” value is 2 (31-60%), the “I = Interligular or internodal length reduction” value is listed as 3 (61-100%), the “R = Retardation” value is recorded as 2 (31-60%) and the “T = Tillering or side shooting” value is given as 1 (10-30%).

In the case of `CC(C)C(O)(c1cncnc1)C(C)C` [A, 2-methyl-1-isopropyl-1-(pyrimidin-5-yl)-propan-1-ol, reference compound], the percent reduction in plant height at 2000 ppm in experiment [3] (setting [13]) is 0%. The percent reduction in plant height at 2000 ppm in experiment [3] (setting [14]) was 23.5%. Moreover, in experiment [4] (setting [15]), the percent reduction in plant height at 500 ppm came out at 0% and the percent reduction in plant height at 2000 ppm was 0%. In addition, in experiment [5] (setting [16]), the Percent reduction in rice height vs formulation blank at 500 ppm was 2% and the Percent reduction in rice height vs formulation blank at 2000 ppm is 0%.
